# In US11166924B2, “N-methyl-d-aspartate receptor allosteric modulators and methods for their use” (Qingdao Primedicine Pharmaceutical Company, Ltd., priority 2016, dated 2021):
# Columns and labels:
# GluN1 or GluN2A mutants = test: Patch clamp in HEK293 cells, another 8 mutations within the defined pocket (summary); type: cell-based, rat
# Protocol: Whole cell patch-clamp recordings were performed under voltage-clamp mode using an Axopatch 200B or 1D patch-clamp amplifier (Molecular Devices). Whole-cell currents were recorded at a holding potential of −60 mV unless indicated elsewhere, and signals were filtered at 2 kHz, digitized at 10 kHz (Digidata 1322A). Recording pipettes (3-5 MΩ) were filled with intracellular solution containing (mM): CsCl 140, HEPES 10, Mg-ATP 4, QX-314 5, pH 7.20; osmolarity, 290-295 mOsm. BAPTA (10 mM) was added in the intracellular solution (unless otherwise specified). The coverslips were continuously superfused with extracellular solution containing (mM): NaCl 140, KCl 5.4, HEPES 10, CaCl2 1.3, glucose 20, pH 7.4; osmolarity, 305-315 mOsm. NMDA-induced currents were applied by NMDA through perfusion fast-step (Warner Instruments). With perfusion fast-step system, NMDA application was achieved by using a two-square barrel glass tubing and depending on the age of the cultured neurons, CNQX (10 μM), TTX (0.5 μM) or BIC (10 μM) were added in the extracellular solution to minimize the activation of ionotropic glutamate receptors and voltage-gated sodium channels, respectively. All experiments were performed at room temperature. Recordings from at least six HEK293 cells/neurons were performed for all active compounds. […]
# [1] = test system: post-stroke locomotory behavior; test: Neurological behavioral tests after stroke; type: in vivo, rat; conditions: 28 days after stroke onset, versus untreated control rats
# Protocol: To assess functional recovery of neural circuits damaged by ischemic insult, three locomotor activity (sensorimotor) deficit modalities were tested: 1) vertical activity (the total number of beam interruptions that occurred in the vertical sensor); 2) number of vertical movements (number of animal rears); and 3) vertical movement time (the amount of time, in seconds, the animal rears) using the VersaMax Animal Activity Monitor (Accuscan Instruments). An ischemic rat was placed into the recording chamber during the ‘dark’ phase of the day/night cycle, and vertical movement time (seconds) was automatically recorded by computer over a 2 h period. The total length of vertical movement represents the recovery of locomotor circuits injured by ischemic stroke.
# Neurobehavioral assays were performed to assess functional recovery of neurons post-stroke.
# [2] = biological target: T1, GluN1/GluN2A-containing NMDARs (Rattus norvegicus, UniProt P35439+Q00959); test: Ca2+ influx assay (Fluo-4) in primary cultured rat neurons; type: cell-based
# T1 construct: endogenous in cells; host or cells: primary rat cortical neurons, 12-14 days in culture
# Protocol: Rat neurons isolated from the entire cortex were plated onto poly-d-lysine-coated 96-well plates. After 12-14 days in culture, the level of intracellular calcium was assayed using the Fluo-4 No Wash calcium assay kit according to the manufacturer's protocol (Thermo Fisher Scientific). In brief, the neuronal culture medium was removed and replaced with a calcium assay buffer (CAB) containing […], 20 mM HEPES, 2.5 mM probenacid, and Fluo4-NW dye mix (pH 7.4; Thermo Fisher Scientific). The cells were then incubated for 45 minutes at 37° C. for dye loading and then 15 minutes at 25° C. To isolate calcium signals mediated by NMDARs, NMDA was used as an agonist (10 μM), and 2 μM glycine were added. The antagonist […] was used to block the GluN1/GluN2A NMDARs. The calcium fluorescence measurement was performed at 25° C. after 60 seconds of recording with a FLEXStation II benchtop scanning fluorometer (Molecular Devices); then, the NMDAR agonist NMDA (10 μM)/glycine (2 μM) was added at 180 seconds. Fluorescence plate reading continued for a total of 30 mins with use of an excitation of 485 nm, an emission of 538 nm, and a cutoff of […]. The data were recorded using SoftMax Pro software (Molecular Devices). […]
# T1 sequence (Q00959 23-1464, other chains not shown): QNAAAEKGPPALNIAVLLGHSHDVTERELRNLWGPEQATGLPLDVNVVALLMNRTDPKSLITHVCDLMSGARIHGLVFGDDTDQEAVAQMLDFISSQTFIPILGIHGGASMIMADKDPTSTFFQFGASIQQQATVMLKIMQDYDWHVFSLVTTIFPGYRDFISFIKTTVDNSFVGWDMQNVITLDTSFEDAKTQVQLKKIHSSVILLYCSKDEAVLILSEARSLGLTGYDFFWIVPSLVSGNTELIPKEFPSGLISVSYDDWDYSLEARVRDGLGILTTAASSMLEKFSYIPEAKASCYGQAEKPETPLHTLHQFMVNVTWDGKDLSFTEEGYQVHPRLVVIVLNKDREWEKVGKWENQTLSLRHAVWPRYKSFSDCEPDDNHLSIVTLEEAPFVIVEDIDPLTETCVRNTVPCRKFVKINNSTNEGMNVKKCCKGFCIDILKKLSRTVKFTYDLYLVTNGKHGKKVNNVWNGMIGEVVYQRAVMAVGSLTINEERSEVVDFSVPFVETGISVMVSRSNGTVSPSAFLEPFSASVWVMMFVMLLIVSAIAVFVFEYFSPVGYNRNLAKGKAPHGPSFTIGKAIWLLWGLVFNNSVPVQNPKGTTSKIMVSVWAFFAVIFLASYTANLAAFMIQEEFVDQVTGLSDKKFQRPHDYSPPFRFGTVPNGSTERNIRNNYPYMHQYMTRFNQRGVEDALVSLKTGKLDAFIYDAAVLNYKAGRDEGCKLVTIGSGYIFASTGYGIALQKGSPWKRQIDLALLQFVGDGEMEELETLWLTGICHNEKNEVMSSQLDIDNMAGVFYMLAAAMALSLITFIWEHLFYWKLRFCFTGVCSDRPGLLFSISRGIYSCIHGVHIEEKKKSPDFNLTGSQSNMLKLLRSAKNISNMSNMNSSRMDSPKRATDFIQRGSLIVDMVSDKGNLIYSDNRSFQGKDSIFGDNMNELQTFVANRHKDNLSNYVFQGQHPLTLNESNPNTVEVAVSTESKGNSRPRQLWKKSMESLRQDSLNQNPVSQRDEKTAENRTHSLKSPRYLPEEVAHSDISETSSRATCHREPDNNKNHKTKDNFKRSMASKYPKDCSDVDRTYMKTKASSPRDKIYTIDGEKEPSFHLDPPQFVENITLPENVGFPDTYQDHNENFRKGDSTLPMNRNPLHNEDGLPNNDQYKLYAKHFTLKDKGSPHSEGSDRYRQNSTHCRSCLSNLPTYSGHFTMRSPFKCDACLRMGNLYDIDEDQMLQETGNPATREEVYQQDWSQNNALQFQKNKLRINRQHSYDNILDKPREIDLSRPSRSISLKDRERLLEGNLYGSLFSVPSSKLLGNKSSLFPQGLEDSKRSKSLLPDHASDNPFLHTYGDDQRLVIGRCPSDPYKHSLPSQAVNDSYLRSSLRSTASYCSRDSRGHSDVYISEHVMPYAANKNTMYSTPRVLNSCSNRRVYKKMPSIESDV
structure (smiles),measurement,setting,value
"CCOc1cc(Cl)c(Cl)c(/C=N/NC(=O)c2ccccc2Br)c1O [Npam43, (E)-2-bromo-N′-(2,3-dichloro-5-ethoxy-6-hydroxybenzylidene)benzohydrazide]",Reduction in potentiation,GluN1 or GluN2A mutants,10-62%
same,Post-stroke locomotory behavior,[1],increased post-stroke locomotory behavior
same,Ca2+ influx in response to Npam43 with co-applied NVP-AAM0077,[2]; GluN2A antagonist co-applied,marked reduction of Ca^2+ influx
same,Ca2+ influx fluorescence signal,"[2]; NMDA 10 μM, glycine 2 μM",increased the Ca^2+ influx fluorescence signal
